According to patent publication US20210369693A1, “METHODS AND PHARMACEUTICAL COMPOSITIONS FOR THE TREATMENT OF NON-ALCOHOLIC STEATOHEPATITIS” (Eiger Biopharmaceuticals, Inc., priority 2017, published 2021):
In brackets after ≈: the same amount, converted by molar mass.

Tests used:
advanced NASH = conditions: after a year of treatment; cited from earlier work
[1] = cited from earlier work
animal model of NASH = experiment: Animal model of NASH (hypothesized); assay type: in vivo
From the text: Accordingly, in one aspect, methods of treating one or more symptoms of NAFLD and/or NASH, such as hepatocyte ballooning, steatosis, and lobular inflammation, are provided. […] Thus, in some embodiments, administration of pirfenidone as described herein is hypothesized to decrease ballooning and measurably lower plasma and/or liver CK-18 levels in as few as 3 to 12 weeks after treatment initiation. In some embodiments, it is hypothesized that continued daily administration of pirfenidone is efficacious in decreasing inflammation and fibrosis in NASH within 2 to 72 weeks after treatment initiation. In some embodiments, it is hypothesized that treatment with pirfenidone results in an improvement in one or more parameters such as improved ALT enzyme levels, decreased inflammation, decreased steatosis, reduced severity of NASH symptoms, reduced levels of NASH biomarkers such as CK-18, or the slowing, stopping, or reversing of liver fibrosis.

CCCCOCCOc1ccc(-c2ccc3c(c2)/C=C(/C(=O)Nc2ccc([S@@+]([O-])Cc4cncn4CCC)cc2)CCCN3CC(C)C)cc1 [cenicriviroc]
primary endpoint of improving inflammation and liver damage (advanced NASH): failed to meet its primary endpoint

Cc1ccc(=O)n(-c2ccccc2)c1 [pirfenidone, 5-methyl-1-phenyl-2-1-(H)-pyridone]
relative solubility in solvents ([1]; methanol, ethyl alcohol, acetone, chloroform vs water and 1.0 N HCl): more soluble in methanol, ethyl alcohol, acetone and chloroform than in water and 1.0 N HCl
hepatocyte ballooning (animal model of NASH; animal model of NASH): demonstrates efficacy in slowing and preventing hepatocyte ballooning
lobular inflammation (animal model of NASH; animal model of NASH): reduces
steatosis (animal model of NASH; animal model of NASH): reduces steatosis
plasma CK-18 levels (animal model of NASH; relative to control animals): decline significantly

CC(C)C[C@H](NC(=O)[C@@H](O)[C@H](N)Cc1ccccc1)C(=O)O [Ubenimex, (2S)-2-[[(2S,3R)-3-amino-2-hydroxy-4-phenylbutanoyl]amino]-4-methylpentanoic acid]
solubility in water ([1]; water): 1.27 mg/mL (≈ 4.12 mM)
